{"source": "paper PMC11372264", "about": "“^61Cu-PSMA–Targeted PET for Prostate Cancer: From Radiotracer Development to First-in-Human Imaging” (Journal of Nuclear Medicine, 2024)", "key": {"[1]": {"assay": "Lipophilicity: distribution coefficient in 1:1 1-octanol/phosphate-buffered saline at pH 7.4", "format": "physicochemical", "protocol": "The lipophilicity of [^61Cu]Cu-DOTAGA-PSMA-I&T and [^61Cu]Cu-NODAGA-PSMA-I&T was assessed by determining the distribution coefficient in a 1:1 mixture of 1-octanol–to–phosphate-buffered saline at pH 7.4, in comparison with all reference radiotracers. Inhibitory concentration of 50% (IC50) was assessed by competition binding on lymph node carcinoma of the prostate (LNCaP) using ((S)-1-carboxy-5-(4-(-^125I-iodo-benzamido)pentyl)carbamoyl)-L-glutamic acid as the reference radioligand. Cellular uptake and distribution were assessed in LNCaP cells at 5, 15, 30, 60, and 120 min after exposure to the radioligand at 37°C, either alone or in the presence of 10 µM 2-(phosphonomethyl)pentanedioic acid to distinguish between specific and nonspecific uptake."}, "[2]": {"assay": "Human dosimetry estimates (OLINDA/EXM version 1.0) from mouse biodistribution", "conditions": "standard adult man phantom; mouse kinetics assumed same as human", "protocol": "Additional biodistribution data were generated in healthy BALB/c mice using [^64Cu]Cu-NODAGA-PSMA-I&T at 1, 4, 12, and 24 h after injection and combined with the data of [^61Cu]Cu-NODAGA-PSMA-I&T at 1 and 4 h after injection. Non–decay-corrected biodistribution data for ^61Cu (t1/2, 3.33 h) were used to generate time–activity curves for [^61Cu]Cu-NODAGA-PSMA-I&T. OLINDA/EXM version 1.0 (Vanderbilt University) was used for the dosimetry estimates, as described in the supplemental materials."}, "[3]": {"assay": "Stability of radiotracer at room temperature (radiochemical purity over time)", "format": "physicochemical", "conditions": "good manufacturing practice grade for human use, 20 MBq/nmol", "protocol": "[^61Cu]Cu-DOTAGA-PSMA-I&T and [^61Cu]Cu-NODAGA-PSMA-I&T were synthesized with radiolabeling yield of more than 98% and radiochemical purity of more than 97% (radio–high-performance liquid chromatography analysis) at an apparent molar activity of 24 MBq/nmol. Thus, no purification was required after labeling. Although [^61Cu]Cu-DOTAGA-PSMA-I&T needed elevated temperature (95°C) and 15 min of reaction time, [^61Cu]Cu-NODAGA-PSMA-I&T was synthesized at room temperature within 5 min. After 4 h at room temperature, the radiochemical purity of [^61Cu]Cu-DOTAGA-PSMA-I&T dropped to approximately 90%, whereas it remained stable (∼97%) for [^61Cu]Cu-NODAGA-PSMA-I&T. All analytic data and quality control results are provided in Supplemental Figures 1 and 2 and in Supplemental Tables 1 and 2.\nWith inexpensive ^natNi as the starting material, highly pure ^61Cu could be produced with radionuclidic purity exceeding 99.99% at 12 h after synthesis (details on the production will be published elsewhere). The preparation of [^61Cu]Cu-NODAGA-PSMA-I&T was performed in widely used buffers at room temperature within 5 min. […] High labeling yields and suitable molar activities for clinical use eliminate the need for any purification step after labeling. […]"}, "[4]": {"tested_on": "patient with metastatic prostate cancer", "assay": "First-in-human PET/CT imaging", "format": "in vivo", "conditions": "105 MBq/32 µg i.v., 3 h after tracer administration", "protocol": "[^61Cu]Cu-NODAGA-PSMA-I&T was produced at the Nuclear Medicine Department of the Klinikum Rechts der Isar (Technical University of Munich) for human use. It was applied according to §13.2b of the German pharmaceutical law, and the requirement to obtain consent for the retrospective data analysis was waived. The manufacture of the tracer was performed via an automated process through a GE Healthcare FASTlab 2 module. Details on the production and quality controls are described in the supplemental materials. A dose of 105 MBq/32 µg was administered intravenously to a patient with known metastatic prostate cancer before ^177Lu-labeled PSMA radiopharmaceutical therapy. The patient was coinjected with 10 mg of furosemide (Lasix; Sanofi-Aventis). Imaging was performed 3 h after tracer administration on a Biograph Vision PET/CT scanner (Siemens Healthineers). Images were obtained from the skull to mid-thigh and reconstructed into multiplanar PET, CT, and fused PET/CT images. CT was used for attenuation correction.\nFIGURE 4. Administration of [^61Cu]Cu-NODAGA-PSMA-I&T, in person with metastatic castration-resistant prostate cancer with disease progression, after abiraterone and docetaxel therapy before ^177Lu-labeled PSMA radiopharmaceutical therapy. Imaging was performed 3 h after tracer administration. […] Patient has also 1 kidney after left nephrectomy."}}, "note": "“And” between values parts separate entries of the source, which are not always exact repeats. Identical values can stand only once.", "data": [{"smiles": "O=C([O-])CN1CCN(CC(=O)[O-])CCN(C(CCC(=O)N[C@H](Cc2ccc(O)c(I)c2)C(=O)N[C@H](Cc2ccccc2)C(=O)N[C@H](CCCCNC(=O)CCCCCCC(=O)NCCCC[C@H](NC(=O)N[C@@H](CCC(=O)O)C(=O)O)C(=O)O)C(=O)O)C(=O)O)CC1.[61Cu+2]", "note": "(stereo partly drawn) [[^61Cu]Cu-NODAGA-PSMA-I&T, NODAGA-(l-y)fk(sub-KuE)]", "values": [{"measurement": "logDpH7.4", "setting": "[1]", "value": "−2.95 ± 0.08"}, {"measurement": "Effective dose", "setting": "[2]", "value": "0.0142 mSv/MBq and 1.42E−02 mSv/MBq"}, {"measurement": "Total absorbed dose, men: Adrenals", "setting": "[2]", "value": "8.39E−02", "unit": "mGy/MBq"}, {"measurement": "Total absorbed dose, men: Brain", "setting": "[2]", "value": "6.18E−05", "unit": "mGy/MBq"}, {"measurement": "Total absorbed dose, men: Gallbladder wall", "setting": "[2]", "value": "2.30E−02", "unit": "mGy/MBq"}, {"measurement": "Total absorbed dose, men: Heart wall", "setting": "[2]", "value": "6.94E−03", "unit": "mGy/MBq"}, {"measurement": "Total absorbed dose, men: Kidneys", "setting": "[2]", "value": "1.74E+00", "unit": "mGy/MBq"}, {"measurement": "Total absorbed dose, men: LLI wall", "setting": "[2]", "value": "4.64E−03", "unit": "mGy/MBq"}, {"measurement": "Total absorbed dose, men: Liver", "setting": "[2]", "value": "2.51E−02", "unit": "mGy/MBq"}, {"measurement": "Total absorbed dose, men: Lungs", "setting": "[2]", "value": "6.11E−03", "unit": "mGy/MBq"}, {"measurement": "Total absorbed dose, men: Muscle", "setting": "[2]", "value": "6.00E−03", "unit": "mGy/MBq"}, {"measurement": "Total absorbed dose, men: Osteogenic cells", "setting": "[2]", "value": "5.31E−03", "unit": "mGy/MBq"}, {"measurement": "Total absorbed dose, men: Pancreas", "setting": "[2]", "value": "4.83E−02", "unit": "mGy/MBq"}, {"measurement": "Total absorbed dose, men: Red marrow", "setting": "[2]", "value": "1.11E−02", "unit": "mGy/MBq"}, {"measurement": "Total absorbed dose, men: Skin", "setting": "[2]", "value": "2.90E−03", "unit": "mGy/MBq"}, {"measurement": "Total absorbed dose, men: Small intestine", "setting": "[2]", "value": "3.79E−02", "unit": "mGy/MBq"}, {"measurement": "Total absorbed dose, men: Spleen", "setting": "[2]", "value": "7.37E−02", "unit": "mGy/MBq"}, {"measurement": "Total absorbed dose, men: Stomach wall", "setting": "[2]", "value": "1.71E−02", "unit": "mGy/MBq"}, {"measurement": "Total absorbed dose, men: Testes", "setting": "[2]", "value": "5.39E−04", "unit": "mGy/MBq"}, {"measurement": "Total absorbed dose, men: Thymus", "setting": "[2]", "value": "1.67E−03", "unit": "mGy/MBq"}, {"measurement": "Total absorbed dose, men: Thyroid", "setting": "[2]", "value": "4.99E−04", "unit": "mGy/MBq"}, {"measurement": "Total absorbed dose, men: Total body", "setting": "[2]", "value": "1.38E−02", "unit": "mGy/MBq"}, {"measurement": "Total absorbed dose, men: ULI wall", "setting": "[2]", "value": "1.43E−02", "unit": "mGy/MBq"}, {"measurement": "Total absorbed dose, men: Urinary bladder wall", "setting": "[2]", "value": "2.06E−03", "unit": "mGy/MBq"}, {"measurement": "Time stable at room temperature", "setting": "[3]", "value": "up to 9 h"}, {"measurement": "SUVmax, kidney (right)", "setting": "[4]", "value": 57.3}, {"measurement": "SUVmax, liver", "setting": "[4]", "value": 6.5}, {"measurement": "SUVmax, salivary gland (right parotid gland)", "setting": "[4]", "value": 20.5}, {"measurement": "SUVmax, tumor lesion left liver lobe", "setting": "[4]", "value": 23.6}, {"measurement": "SUVmax, tumor lesion right lower pubic bone", "setting": "[4]", "value": 154.2}, {"measurement": "SUVmax, tumor lesion right scapula", "setting": "[4]", "value": 86.4}, {"measurement": "SUVmax, tumor lesion sacral bone", "setting": "[4]", "value": 16.5}, {"measurement": "SUVmean, kidney (right)", "setting": "[4]", "value": 37.9}, {"measurement": "SUVmean, liver", "setting": "[4]", "value": 3.4}, {"measurement": "SUVmean, salivary gland (right parotid gland)", "setting": "[4]", "value": 12.6}, {"measurement": "SUVmean, tumor lesion left liver lobe", "setting": "[4]", "value": 11.7}, {"measurement": "SUVmean, tumor lesion right lower pubic bone", "setting": "[4]", "value": 83.7}, {"measurement": "SUVmean, tumor lesion right scapula", "setting": "[4]", "value": 55.3}, {"measurement": "SUVmean, tumor lesion sacral bone", "setting": "[4]", "value": 9.9}]}]}
